Legend:
[1] = Nitroxyl production via N2O headspace analysis (GC); settings: PBS, 37° C.
From the text: Nitrous oxide (N2O) is produced via the dimerization and dehydration of HNO, and is the most common marker for nitroxyl production (Fukuto et al., Chem. Res. Toxicol. 18:790-801 (2005)). […] Using either nitrous oxide gas or Angeli's salt (AS) as a standard, the relative amounts of N2O released from N-hydroxymethanesulfonamide nitroxyl donating compounds was examined via gas chromatography (GC) headspace analysis.
A procedure for determining the relative amounts of N2O released from N-hydroxymethanesulfonamide nitroxyl donating compounds is as follows. GC was performed on an Agilent gas chromatograph equipped with a split injector (10:1 splitting), microelectron capture detector, and a HP-MOLSIV 30 m×0.32 mm×25 μm molecular sieve capillary column. Helium was used as the carrier (4 mL/min) gas and nitrogen was used as the make-up (20 mL/min) gas. […]
All determinations used a batch of nominal 20 mL headspace vials with volumes pre-measured for sample uniformity (actual vial volume varied by ≤2.0% relative standard deviation (n=6)). The average vial volume for the batch was determined from six randomly-selected vials by calculating the weight difference between the capped and sealed empty (i.e., air-filled) vial and the capped and sealed deionized water-filled vial using the known density of deionized water, then averaging. […]

[2] = In vitro stability in dog plasma; format: in vitro ADME; settings: male, pH 7.4, 37° C., read-out: T1/2 (minutes) Dog
Protocol: (§1) Certain compounds from Table 1 were tested for their stability in plasma. The assay system comprised (i) PBS, or plasma from rat, dog or human (at least 3 donors, male, pooled) at pH 7.4, and (ii) for tests conducted in plasma, an anticoagulant (sodium heparin or sodium citrate). Each test compound (5 μM) was incubated in PBS or plasma at 37° C. on a THERMOMIXER® with shaking Three samples (n=3) were taken at each of seven sampling time points: 0, 10, 30, 60, 90, 180 and 360 minutes. The samples were immediately combined with 3 volumes (i.e., 3 times the volume of PBS or plasma) of acetonitrile containing 1% formic acid and an internal standard to terminate the reaction. AB SCIEX API 3000 LC-MS/MS analysis of the test compounds was performed without a standard curve. Half-lives (T1/2) of the test compounds were determined from graphs of the percent remaining values using the peak area response ratio.

[3] = Solid-state stability (appearance, HPLC purity) on storage; format: physicochemical; settings: 40° C., 70% RH
Protocol: Solid, powdered samples of compound 2 (1-(4-chlorophenyl)-N-hydroxymethanesulfonamide) were sealed in double polyethylene bags and stored at 40° C., 70% relative humidity (RH) for up to 3 months. After 2 weeks, 1 month, 2 months, and 3 months of storage, the samples were analyzed for visual appearance and/or purity, as determined by high performance liquid chromatography (HPLC). The HPLC measurement conditions were as follows: • Column: PrimeSep AB, 150×4.6 mm, 5 μm • Injection Volume: 10 μL • Detection Wavelength: 220 nm • Mobile Phase A: 0.3% Trifluoroacetic acid (TFA) in deionized water (DI-H2O) • Mobile Phase B: 0.2% TFA in acetonitrile • Diluent: Acetonitrile • Gradient:
• Flow Rate: 1.0 mL/min • Column Temperature: 30° C.

[4] = In vitro stability in human plasma; format: in vitro ADME; settings: male, pH 7.4, 37° C., read-out: T1/2 (minutes) Human
Protocol: as §1

[5] = In vitro stability in rat plasma; format: in vitro ADME; settings: male, pH 7.4, 37° C., read-out: T1/2 (minutes) Rat
Protocol: as §1

Question: With O=[N+]([O-])c1ccccc1CS(=O)(=O)NO [Compound 1, N-Hydroxy-1-(2-nitrophenyl)methanesulfonamide] as the compound, how does the melting point read?
Answer: 163 °C

Question: What about the “Relative N2O Yield (90 minute incubation)” value [1] of the same compound?
Answer: 37%

Question: What about the half-life at 5 μM [2] of the same compound?
Answer: 26 min

Question: Which Appearance ([3]; 0 Weeks) does the source give for O=S(=O)(Cc1ccc(Cl)cc1)NO [Compound 2, 1-(4-Chlorophenyl)-N-hydroxymethanesulfonamide] here?
Answer: White

Question: And the “HPLC Purity” value ([3]; 0 Weeks)?
Answer: 98.912%

Question: And the “HPLC peak at RRT 0.88” value ([3]; 0 Weeks)?
Answer: 0.368%

Question: What about the “HPLC peak at RRT 1.23” value ([3]; 0 Weeks) of the same compound?
Answer: 0.087%

Question: What about the “HPLC peak at RRT 1.35” value ([3]; 0 Weeks) of the same compound?
Answer: 0.633%

Question: And the Appearance ([3]; 1 Month)?
Answer: White

Question: What about the “HPLC Purity” value ([3]; 1 Month) of the same compound?
Answer: 95.579%

Question: And the “HPLC peak at RRT 0.88” value ([3]; 1 Month)?
Answer: 0.966%

Question: What about the “HPLC peak at RRT 1.54” value ([3]; 1 Month) of the same compound?
Answer: 1.959%

Question: What about the “HPLC peak at RRT 1.76” value ([3]; 1 Month) of the same compound?
Answer: 0.502%

Question: What about the Appearance ([3]; 2 Months) of the same compound?
Answer: Off white

Question: And the “HPLC Purity” value ([3]; 2 Months)?
Answer: 82.665%

Question: And the “HPLC peak at RRT 0.88” value ([3]; 2 Months)?
Answer: 3.600%

Question: And the “HPLC peak at RRT 1.53” value ([3]; 2 Months)?
Answer: 6.432%

Question: What about the “HPLC peak at RRT 1.77” value ([3]; 2 Months) of the same compound?
Answer: 3.234%

Question: What about the Appearance ([3]; 2 Weeks) of the same compound?
Answer: White

Question: And the Appearance ([3]; 3 Months)?
Answer: Off white

Question: What about the “HPLC Purity” value ([3]; 3 Months) of the same compound?
Answer: 76.661%

Question: What about the “HPLC peak at RRT 0.88” value ([3]; 3 Months) of the same compound?
Answer: 4.108%

Question: And the “HPLC peak at RRT 1.50” value ([3]; 3 Months)?
Answer: 10.123%

Question: And the “HPLC peak at RRT 1.77” value ([3]; 3 Months)?
Answer: 3.165%

Question: And the melting point?
Answer: 144 °C

Question: What about the “Relative N2O Yield (90 minute incubation)” value [1] of the same compound?
Answer: 24%

Question: What about the half-life at 5 μM [4] of the same compound?
Answer: 102 min

Question: What about the half-life at 5 μM [2] of the same compound?
Answer: 62 min

Question: And the half-life at 5 μM [5]?
Answer: 114 min

— US9932303B2, “N-hydroxymethanesulfonamide nitroxyl donors” (Cardioxyl Pharmaceuticals, Inc., priority 2014, dated 2018)
